Read-outs that look alike come from different tables or passages of the source.
Columns and labels:
[1] = target: T1, human A1 AR (Homo sapiens, UniProt P30542); test: Radioligand binding (125I-ABA competition) to human A1 AR in CHO K1 cell membranes; settings: read-out: Binding Affinity A1
T1 construct: expressed in transfected cells
T1 sequence (P30542 1-326): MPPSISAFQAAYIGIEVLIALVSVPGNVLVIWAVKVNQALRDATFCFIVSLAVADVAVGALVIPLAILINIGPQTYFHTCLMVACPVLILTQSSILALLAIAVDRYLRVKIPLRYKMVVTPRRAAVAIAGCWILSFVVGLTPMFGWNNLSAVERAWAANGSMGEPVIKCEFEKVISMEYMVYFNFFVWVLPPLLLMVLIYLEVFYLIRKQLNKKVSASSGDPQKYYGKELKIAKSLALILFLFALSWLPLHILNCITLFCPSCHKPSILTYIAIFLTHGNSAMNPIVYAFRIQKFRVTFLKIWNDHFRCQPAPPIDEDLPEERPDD
Protocol: (§1) Sf9 cells were cultured in Grace's medium supplemented with 10% fetal bovine serum, 2.5 μg/ml amphotericin B and 50 μg/ml gentamycin in an atmosphere of 50% N2/50% O2. Viral infection was performed at a density of 2.5×10^6 cells/mL with a multiplicity of infection of two for each virus used. Infected cells were harvested 3 days post-infection and washed twice in insect PBS (PBS pH 6.3). Cells were then resuspended in lysis buffer (20 mM HEPES pH 7.5, 150 mM NaCl, 3 mM MgCl2, 1 mM β-mercaptoethanol (BME), 5 μg/mL leupeptin, 5 μg/mL pepstatin A, 1 μg/mL aprotinin, and 0.1 mM PMSF) and snap frozen for storage at −80° C. Cells were thawed on ice, brought to 30 mL total volume in lysis buffer, and burst by N2 cavitation (600 psi for 20 minutes). A low-speed centrifugation was performed to remove any unlysed cells (1000×g for 10 minutes), followed by a high-speed centrifugation (17,000×g for 30 minutes). The pellet from the final centrifugation was homogenized in buffer containing 20 mM HEPES pH 8, 100 mM NaCl, 1% glycerol, 2 μg/mL leupeptin, 2 μg/mL pepstatin A, 2 μg/mL Aprotinin, 0.1 mM PMSF, and 10 μM GDP using a small glass homogenizer followed by passage through a 26 gauge needle. Membranes were aliquoted, snap frozen in liquid N2, and stored at −80° C. Membranes from cells stably expressing the human A1 AR (CHO K1 cells) or A3 AR (HEK 293 cells) were prepared as described (Robeva et al., 1996).
(§2) Radioligand binding to recombinant human A2A receptors in Sf9 cell membranes was performed using either the radio labeled agonist, ^125I-APE (Luthin et al., 1995) or the radio labeled antagonist, ^125I-ZM241385 (^1251-ZM). To detect the high affinity, GTPγS-sensitive state of A1 and A3 AR, we used the agonist, ^125I-ABA (Linden et al., 1985;Linden et al., 1993). Binding experiments were performed in triplicate with 5 μg (A2A) or 25 μg (A1 and A3) membrane protein in a total volume of 0.1 mL HE buffer (20 mM HEPES and 1 mM EDTA) with 1 U/mL adenosine deaminase and 5 mM MgCl2 with or without 50 μM GTPγS. Membranes were incubated with radioligands at room temperature for three hours (for agonists) or two hours (for antagonists) in Millipore Multiscreen® 96-well GF/C filter plates and assays were terminated by rapid filtration on a cell harvester (Brandel, Gaithersburg, Md.) followed by 4×150 μl washes over 30 seconds with ice cold 10 mM Tris-HCl, pH 7.4, 10 mM MgCl2. Nonspecific binding was measured in the presence of 50 μM NECA. Competition binding assays were performed as described (Robeva et al., 1996) using 0.5-1 nM ^125I-APE, ^125I-ZM241385, or ^125I-ABA. […] The Ki values for competing compound binding to a single site were derived from IC50 values with correction for radioligand and competing compound depletion as described previously (Linden, 1982).

[2] = target: T2, recombinant human A2A receptors (Homo sapiens, UniProt P29274); test: Radioligand binding to recombinant human A2A receptors in Sf9 cell membranes; settings: recombinant human A2A receptor, 125I-APE or 125I-ZM241385, read-out: Binding Affinity A2A
T2 construct: expressed in transfected cells; host or cells: Sf9 insect cells, viral infection
Protocol: as §1, §2

[3] = target: T3, human A3 AR (Homo sapiens, UniProt P0DMS8); test: Radioligand binding (125I-ABA competition) to human A3 AR in HEK 293 cell membranes; settings: read-out: Binding Affinity A3
T3 construct: expressed in transfected cells
T3 sequence (P0DMS8 1-318): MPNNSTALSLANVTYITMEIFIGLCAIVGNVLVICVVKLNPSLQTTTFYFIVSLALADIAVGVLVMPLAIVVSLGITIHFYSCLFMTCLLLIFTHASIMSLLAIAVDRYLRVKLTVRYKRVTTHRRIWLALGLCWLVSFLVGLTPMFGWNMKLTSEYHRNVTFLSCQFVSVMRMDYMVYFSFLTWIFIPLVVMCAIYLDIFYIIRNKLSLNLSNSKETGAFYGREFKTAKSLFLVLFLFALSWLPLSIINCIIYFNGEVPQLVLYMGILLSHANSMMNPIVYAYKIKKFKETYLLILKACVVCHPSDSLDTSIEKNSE
Protocol: as §1, §2

[4] = tested on: human neutrophils; test: Human neutrophil oxidative activity, luminol-enhanced chemiluminescence (TNF-primed, fMLP-stimulated); assay type: cell-based; settings: peak chemiluminescence
Description: Chemiluminescence Methods: Luminol enhanced chemiluminescence, a measure of neutrophil oxidative activity, is dependent upon both superoxide production and mobilization of the granule enzyme myeloperoxidase. The light is emitted from unstable high-energy oxygen species such as hypochlorous acid and singlet oxygen generated by activated neutrophils.
Purified human neutrophils (2×10^6/ml) suspended in Hanks balanced salt solution containing 0.1% human serum albumin (HA), adenosine deaminase (1 U/mL) and rolipram (100 nM) were incubated (37° C.) in a water bath for 15 min with or without rhTNF(10 U/ml). Following incubation 100 µL aliquots of the PMN were transferred to wells (White walled clear bottom 96 well tissue culture plates Costar #3670; 2 wells/condition) containing […] and luminol (final concentration […]) with or without adenosine agonist (final agonist concentrations 0.01-1000 nM). The plate was incubated 5 min (37° C.) and then FMLP (501 in HA; final concentration […]) was added to all wells.
Peak chemiluminescence was determined with a Victor 1420 Multilabel Counter in the chemiluminescence mode using the Wallace Workstation software. Data are presented as peak chemiluminescence as percent of activity in the absence of an adenosine agonist. The EC50 was determined using PRISM software. All compounds were tested with PMNs from three separate donors.
Purified neutrophils (˜98% neutrophils and >95% viable by trypan blue exclusion) containing <1 platelet per 5 neutrophils and <50 pg/ml endotoxin (limulus amebocyte lysate assay) were obtained from normal heparinized (10 U/ml) venous blood by a one step Ficoll-hypaque separation procedure (A. Ferrante et al., J. Immunol. Meth., 36, 109 (1980)).
Luminol-enhanced chemiluminescence, a measure of neutrophil oxidative activity, is dependent upon both superoxide production and mobilization of the lysosomal granule enzyme myeloperoxidase. The light is emitted from unstable high-energy oxygen species generated by activated neutrophils. Purified neutrophils (5-10×10^5/ml) were incubated in Hanks balanced salt solution containing 0.1% human serum albumin (1 ml) with the tested A2A agonist with or without rolipram and with or without tumor necrosis factor-alpha (1 U/ml) for 30 minutes at 37° C. in a shaking water bath. Then luminol (1×10^−4 M) enhanced f-met-leu-phe (1 mcM) stimulated chemiluminescence was read with a Chronolog® Photometer (Crono-log Corp., Havertown, Pa.) at 37° C. for 2-4 minutes. Chemiluminescence is reported as relative peak light emitted (=height of the curve) compared to samples with tumor necrosis factor-alpha and without agonist or rolipram.

[5] = human neutrophil experiment with Rolipram, read-out: Functional + Roli
[6] = human neutrophil experiment without Rolipram, read-out: Functional

T2 sequence (P29274 whole entry): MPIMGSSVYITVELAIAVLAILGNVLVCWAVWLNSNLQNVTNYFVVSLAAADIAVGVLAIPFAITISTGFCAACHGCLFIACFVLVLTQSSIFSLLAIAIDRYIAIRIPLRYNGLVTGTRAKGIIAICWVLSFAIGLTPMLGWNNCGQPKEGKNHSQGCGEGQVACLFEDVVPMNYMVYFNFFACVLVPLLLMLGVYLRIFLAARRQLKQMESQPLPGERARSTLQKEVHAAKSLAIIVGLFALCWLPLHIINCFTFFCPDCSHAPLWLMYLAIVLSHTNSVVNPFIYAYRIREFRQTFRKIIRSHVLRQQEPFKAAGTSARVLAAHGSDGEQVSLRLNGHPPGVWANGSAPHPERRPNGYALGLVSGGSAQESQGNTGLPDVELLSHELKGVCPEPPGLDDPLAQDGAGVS

**Q.** How did the Ki [1] turn out when `CCNC(=O)[C@H]1O[C@@H](n2cnc3c(N)nc(C#CC4(O)CCCC5CCCCC54)nc32)C(O)C1O` (stereo in doubt) [Example 4, 5-[6-Amino-2-(1-hydroxy-decahydro-naphthalen-1-ylethynyl)-purin-9-yl]-3,4-dihydroxy-tetrahydro-furan-2-carboxylic acid ethylamide] was run?
**A.** 7.3 nM

**Q.** What about the Ki [2] of the same compound?
**A.** 6.4 nM

**Q.** And the Ki [3]?
**A.** 28.3 nM

**Q.** And the EC50 [4, 5]?
**A.** 3.7 nM

**Q.** And the EC50 [4, 6]?
**A.** 25 nM

**Q.** `Nc1nc(C#CC2(O)C3CC4CC(C3)CC2C4)nc2c1ncn2[C@@H]1O[C@H](CO)C(O)C1O` (stereo in doubt) [Example 6, 2-[6-Amino-2-(2-hydroxy-adamantan-2-ylethynyl)-purin-9-yl]-5-hydroxymethyl-tetrahydro-furan-3,4-diol] was tested. Which Ki [1] did it give?
**A.** 28.5 nM

**Q.** And the Ki [2]?
**A.** 0.6 nM

**Q.** And the Ki [3]?
**A.** 2.9 nM

**Q.** What about the EC50 [4, 5] of the same compound?
**A.** 0.3 nM

**Q.** And the EC50 [4, 6]?
**A.** 4.9 nM

**Q.** With `CCNC(=O)[C@H]1O[C@@H](n2cnc3c(N)nc(C#CC4(O)CC5CCC4C5)nc32)C(O)C1O` (single isomer, unassigned) [Example 1, 5-[6-Amino-2-(2-hydroxy-bicyclo[2.2.1]hept-2-ylethynyl)-purin-9-yl]-3,4-dihydroxy-tetrahydro-furan-2-carboxylic acid ethylamide] as the compound, how does the Ki [1] read?
**A.** 31 nM

**Q.** What about the Ki [2] of the same compound?
**A.** 0.2 nM

**Q.** And the Ki [3]?
**A.** 10 nM

**Q.** And the EC50 [4, 5]?
**A.** 0.22 nM

**Q.** And the EC50 [4, 6]?
**A.** 3.1 nM

**Q.** Which results are given for `CCNC(=O)[C@H]1O[C@@H](n2cnc3c(N)nc(C#CC4(O)CC5CCC4C5)nc32)C(O)C1O` (single isomer, unassigned) [Example 2, 5-[6-Amino-2-(2-hydroxy-bicyclo[2.2.1]hept-2-ylethynyl)-purin-9-yl]-3,4-dihydroxy-tetrahydro-furan-2-carboxylic acid ethylamide]?
**A.** Ki [1]: 11 nM; Ki [2]: 0.3 nM; Ki [3]: 3 nM; EC50 [4, 5]: 0.058 nM; EC50 [4, 6]: 0.5 nM

**Q.** With `CCNC(=O)[C@H]1O[C@@H](n2cnc3c(N)nc(C#CC4(O)C5CC6CC(C5)CC4C6)nc32)C(O)C1O` (stereo in doubt) [Example 3, 5-[6-Amino-2-(2-hydroxy-adamantan-2-ylethynyl)-purin-9-yl]-3,4-dihydroxy-tetrahydro-furan-2-carboxylic acid ethylamide] as the compound, how does the Ki [1] read?
**A.** 75 nM

**Q.** What about the Ki [2] of the same compound?
**A.** 0.2 nM

**Q.** What about the Ki [3] of the same compound?
**A.** 4 nM

**Q.** What about the EC50 ([4]; Homo sapiens, Neutrophil, human neutrophil experiment with Rolipram, read-out: Functional + Roli) of the same compound?
**A.** 0.22 nM

**Q.** And the EC50 ([4]; Homo sapiens, Neutrophil, human neutrophil experiment without Rolipram, read-out: Functional)?
**A.** 3.8 nM

**Q.** How did the Ki [1] turn out when `CCNC(=O)[C@H]1O[C@@H](n2cnc3c(N)nc(C#CC4(O)CCCC5CCCCC54)nc32)C(O)C1O` (stereo in doubt) [Example 5, 5-[6-Amino-2-(1-hydroxy-decahydro-naphthalen-1-ylethynyl)-purin-9-yl]-3,4-dihydroxy-tetrahydro-furan-2-carboxylic acid ethylamide] was run?
**A.** 2.6 nM

**Q.** And the Ki [2]?
**A.** 0.7 nM

**Q.** What about the Ki [3] of the same compound?
**A.** 4.9 nM

**Q.** And the EC50 [4, 5]?
**A.** 0.28 nM

**Q.** And the EC50 [4, 6]?
**A.** 2.5 nM

— US7442687B2, “2-polycyclic propynyl adenosine analogs having A2A agonist activity” (The University of Virginia Patent Foundation, priority 2004, dated 2008)
